These are literature values, as cited in patent EP0956866A1, “DRUGS FOR AMELIORATING OPHTHALMIC CIRCULATORY DISTURBANCE” (KIRIN BEER KABUSHIKI KAISHA, priority 1996, dated 1998).

SMILES strings stand for the structures.

For series [1] the following is noted: literature report.
The conditions of series [2]: disclosed in WO89/10757.

As to `CC1(C)Oc2ccc(C#N)cc2C(N2CCCC2=O)C1O` (stereo not drawn) [cromakalim], in series [1], the ocular blood flow entry is listed as “lowers the ocular blood flow”. Also, the ocular pressure entry in series [2] is given as “lower the ocular pressure”.
As to `CC(N/C(=N\C#N)Nc1ccncc1)C(C)(C)C` (stereo not drawn) [pinacidil], the ocular pressure result in series [2] is on record as “lower the ocular pressure”.
